Test results from patent publication US7201899B2, “Materials and methods for management of hyperacute rejection in human xenotransplantation” (BresaGen Limited, priority 1994, dated 2007).

Legend:
PK-1 and PAE's cells = experiment: Antibody staining and FACS analysis of porcine cells; assay type: binding; conditions: for inhibition of anti-GAL IgM and/or IgG staining of porcine cells by sugar: anti-GAL antibodies pre-incubated with sugar (0.1 M) at 37° C. for 30 min
Procedure: C. Antibody Staining and FACS Analysis • 1) Add 2 ml TED to a 75 cm^2 culture flask containing PK-1 or PAE'S, and incubate at room temperature for 10 min. • 2) Add RPMI plus 10% FCS (5 ml) to neutralize trypsin. • 3) Pellet cells by centrifugation (700 g, 5 min, • 4) Wash cells by resuspension and centrifugation in Hanks Buffer (×2). • 5) Pellet cells by centrifugation (700 g, 5 min, 4° C.). • 6) Resuspend cell pellet in Hanks buffer containing purified anti-GAL antibodies, GAL-depleted serum or GAL-depleted IgG and incubate at 4° C. for 60 min. All antibodies were used undiluted, or diluted 1:2 or 1:4 in Hanks buffer. • 7) Add 1 ml of Hanks Buffer, pellet cells by centrifugation and aspirate off supernatant. • 8) Resuspend pellet in FITC-labelled sheep-anti-human IgG Fab2 or IgM Fab2 (Silenus, Hawthorn, Australia) diluted 1:80 in Hanks buffer. • 9) Incubate for 30 min. at 4° C. • 10) Wash three times with Hanks buffer; resuspend pellet from final wash in 0.5 ml Hanks buffer. • 11) Analyze stained samples using a FACScan II (Becton Dickinson) according to the manufacturer's instructions.
The specificity of the anti-GAL antibody binding to porcine cells was determined by examining the ability of sugars of various structures to inhibit antibody binding. In these competition studies the anti-GAL antibodies were pre-incubated with sugar (0.1 M) at 37° C. for 30 min before adding to the cells.

pig RBC = experiment: Hemagglutination of pig RBC by human serum: sugar inhibition; assay type: cell-based; conditions: for Inhibitory Concentration: inhibition of pig RBC hemagglutination by pooled human AB serum; for concentration range inhibiting agglutination (in words): pig RBC agglutination by human serum
Procedure: The methods used to investigate the hemagglutination of pig red blood cells (RBC's) by human serum was adapted from the methods described by Galili, J. Exp. Med. 160: 1579–81 (1984) and Severson, Immunol. 96: 785–789 (1966).
A. Media/Solution Preparation • 1. Human Serum Albumin (HSA) (CSL, Melbourne, Australia) (5 mg/ml) was dissolved in PBS, filter sterilized, and stored at 4° C. • 2. Preparation of sugars: • 1 M stock solutions of sugar were prepared by dissolving the amount indicated in 100 ml of PBS. Sodium azide was added (0.02%) and solutions stored at 4° C.
B. Preparation of Pig RBC'S • 1. Heparinised pig blood (Animal Resources, Clayton, Australia) is centrifuged at 800 RPM for 10 min to pellet the RBC. • 2. The RBC pellet is washed by resuspension in PBS (10 ml) and recentrifugation (repeated 3 times). After the final wash, the RBC pellet is resuspended in 10 ml PBS. • 3. A 0.5% solution of RBC's is prepared by adding 50 ul RBC solution (from step 2, above) to 10 ml PBS containing 0.5 g/100 ml of HSA.
C. Preparation of 96-well Microtitre Plates (Titretek. USA) • 1. Add 25 ul of PBS to each well. • 2. Add 25 ul of pooled human AB serum (CSL, Melbourne, Australia) to column 1 and serially dilute by removing 25 ul from column 1 and adding to column 2, then repeating by sequentially removing and adding 25 ul from and to each well across the plate, finally discarding 25 μl from column 11 and adding no serum to column 12. • 3. Add 25 ul of sugar solution to each row in decreasing concentrations down rows. No sugar solution is added to the final row. • 4. Incubate at 4° C. overnight and then at 37° C. for 30 min. • 5. Add 50 ul of 0.5% pig RBC to each well; vortex and incubate at room temperature for 2 hours. Determine agglutination visually. II. Results

[1] = test system: pig kidney, heart and liver sections; experiment: Immunostaining of pig tissues with anti-GAL antibodies; assay type: binding; conditions: pig renal cortex sections, proximal tubule brush borders; sugar 0.1 M
Procedure: Pig kidney was fixed in formalin and dehydrated before embedding in Paraplast. Pig heart and liver were fixed in paraformaldehyde-lysine-periodate fixative and snap frozen in O.C.T. embedding compound (10.24% w/w polyvinyl alcohol, 4.26% w/w polyethylene glycol, 85.50% w/w nonreactive ingredients; Tissue Tek®, Miles, Inc., Elkhart, Ind., USA). Four μm-thick sections of pig heart and liver and 2 μm-thick sections of kidney were incubated with purified anti-GAL antibodies (undiluted, 1:2 and 1:4) for 60 min. and then incubated with a fluorescein isothiocyanate (FITC)-conjugated sheep anti-human immunoglobulin F(ab′) fragment. (Silenus Laboratories, Hawthorn, Australia) (1:100) for 30 min. or a peroxidase-conjugated rabbit anti-human IgG (Dakopatts, Glostrup, Denmark) (1:50) for 60 min. Control sections were analyzed for autofluorescence, with the secondary antibody alone, or with the anti-GAL-depleted IgG or normal pig serum as the primary antibody. […] The specificity of the anti-GAL antibodies was tested by pre-incubating sections of pig renal cortex with a variety of sugars, including melibiose, lactose, sucrose and glucose at 0.1 M.

Row | SMILES | inhibition of anti-GAL IgM and/or IgG staining of porcine cells by sugar (PK-1 and PAE's cells) | decrease of anti-GAL antibody staining of PAE's (FIG. 1) (PK-1 and PAE's cells; anti-GAL antibody pre-incubated with sugar, versus anti-GAL antibody alone) | Inhibitory Concentration (pig RBC) | concentration range inhibiting agglutination (in words) (pig RBC) | inhibition of anti-GAL antibody binding to pig tissue by sugar [1]
1 | O=C[C@H](O)[C@@H](O)[C@@H](O)[C@H](O)CO [Galactose, D(+)galactose] | inhibited | approximately 10 fold less | 0.002 M | μM to mM range | 
2 | OC[C@H]1O[C@H](OC[C@H]2O[C@H](OC[C@H]3O[C@H](O[C@]4(CO)O[C@H](CO)[C@@H](O)[C@@H]4O)[C@H](O)[C@@H](O)[C@@H]3O)[C@H](O)[C@@H](O)[C@H]2O)[C@H](O)[C@@H](O)[C@H]1O [Stachyose, α-D-gal-[1->6]-α-D-Glc-[1->2]-β-D-Fru] | inhibited |  | 0.002 M | μM to mM range | 
3 | OC[C@H]1O[C@@](CO)(O[C@H]2O[C@H](CO)[C@@H](O)[C@H](O)[C@H]2O)[C@@H](O)[C@@H]1O [Sucrose, α-D-Glucopyranosyl β-D-fructofuranoside] |  |  | >10^−1M | only inhibitory when very high concentrations were used | not inhibited
